Measured values taken from PubChem BioAssay (NCI).
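1) Cells in 96-well plates. 2) Compound, 48 h, 5 concentrations. 3) Linear interpolation between surrounding doses. 4) Unreached endpoint = highest concentration. Abbreviation: GI50, concentration required for 50% inhibition of growth. TGI: concentration producing complete growth inhibition.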

Assays:
Assay in all cases: DTP human tumour cell line panel, 48 h
[1] = system: A498 renal
[2] = system: COLO 205 colon
[3] = system: HCC-2998 colon
[4] = system: MALME-3M melanoma
[5] = system: NCI-H522 lung
[6] = system: OVCAR-5 ovarian
[7] = system: PC-3 prostate
[8] = system: SK-MEL-2 melanoma
[9] = system: EKVX NSCLC
[10] = system: NCI-H226 lung

SMILES | GI50 [1] | TGI [1] | GI50 [2] | TGI [2] | GI50 [3] | TGI [3] | GI50 [4] | TGI [4] | GI50 [5] | TGI [5] | GI50 [6] | TGI [6] | GI50 [7] | TGI [7] | GI50 [8] | TGI [8] | TGI [9] | TGI [10] | GI50 [9] | GI50 [10]
Cc1cc(-c2nnc3n2CCCCC3)c(C)n1-c1ccc(Cl)c(Cl)c1 | 14 µM | 28 µM | 10.6 µM | 25.1 µM | 14 µM | 29.3 µM | 13.8 µM | 30.4 µM | 12.6 µM | 28.3 µM | 39 µM | > 100 µM | 11 µM | 57.1 µM | 14.9 µM | 31 µM | – | – | – | –
c1nnc(NCNc2nncs2)s1 | – | > 100 µM | – | > 100 µM | – | 84.2 µM | – | > 100 µM | – | > 100 µM | – | > 100 µM | – | > 100 µM | – | > 100 µM | > 100 µM | > 100 µM | – | –
O=C1c2ccccc2-n2c1nc1ccccc1c2=O | – | 59.8 µM | – | 27.8 µM | – | > 90.4 µM | – | 29 µM | – | 64.3 µM | – | 29.9 µM | – | > 60.1 µM | – | 22.9 µM | 35.3 µM | > 80.1 µM | – | –
COc1ccc(Cl)cc1Nc1nc(C(F)(F)F)ccc1C(=O)N/N=C/c1cc(OC)c(OC)c(OC)c1 | 2.19 µM | 7.65 µM | 2.62 µM | 8.33 µM | 2.24 µM | 19.7 µM | 1.07 µM | 4.05 µM | 2.29 µM | 5.83 µM | 5.59 µM | 24.4 µM | 2.4 µM | 17.4 µM | 1.76 µM | 5.35 µM | 13.5 µM | 12.6 µM | 1.36 µM | 3.35 µM
COc1ccc(C2CC(n3nnnc3-c3ccccc3)=NN2)cc1 (configuration not stated) | 18.6 µM | 55.1 µM | 3.5 µM | 11.7 µM | 3.41 µM | 17.2 µM | 2.66 µM | 20.3 µM | 1.16 µM | 20.4 µM | 5.59 µM | 61.7 µM | 6.28 µM | 72.3 µM | 11.6 µM | 32.7 µM | 36.3 µM | 22.8 µM | 1.8 µM | 4.98 µM
Oc1ccccc1-c1nc2c3ccccc3c3ccccc3c2[nH]1 | 12.2 µM | 24.6 µM | 10.8 µM | 22.7 µM | 4.13 µM | 12.1 µM | 16.2 µM | 31.7 µM | 3.07 µM | 10.3 µM | 15 µM | 28.3 µM | 3.49 µM | 14.8 µM | 5.16 µM | 16.7 µM | 20.6 µM | 20.9 µM | 4.33 µM | 7.85 µM
COC(=O)CCCCCN=Cc1c(O)c(O)c(C(C)C)c2cc(C)c(-c3c(C)cc4c(C(C)C)c(O)c(O)c(C=NCCCCCC(=O)OC)c4c3O)c(O)c12 | 2.74 µM | > 32.5 µM | 1.18 µM | 13.2 µM | 2.15 µM | > 32.5 µM | 2.45 µM | > 32.5 µM | 0.968 µM | 6.52 µM | – | – | 1.03 µM | > 32.5 µM | 2.2 µM | 28.7 µM | > 32.5 µM | 19 µM | 1.18 µM | 3.15 µM
COC(=O)C1=C(C(=O)OC)SC(=C(Cl)C(=S)Sc2ccccc2N)S1 | – | – | 34.8 µM | > 100 µM | – | – | > 100 µM | > 100 µM | 17.4 µM | 43.1 µM | 19.3 µM | 41.5 µM | 29.6 µM | > 100 µM | 14.2 µM | 43.6 µM | – | > 100 µM | – | 30.7 µM
Cc1nc(C(N)=S)sc1C(=O)C/C(=N/N)C(=O)Nc1cccc(Cl)c1C | – | > 100 µM | – | – | – | > 100 µM | – | > 100 µM | – | > 100 µM | – | > 100 µM | – | > 100 µM | – | > 100 µM | > 100 µM | > 100 µM | – | –
CCN(CC)CCCC(C)Nc1c2ccc(C)cc2nc2ccc(OC)cc12 (configuration not stated) | 0.863 µM | 13.8 µM | 1.21 µM | 2.96 µM | – | – | 1.73 µM | 3.53 µM | – | – | 2.11 µM | 21.6 µM | 1.94 µM | 10.8 µM | 1.89 µM | 8.75 µM | 16 µM | – | 2.35 µM | –
COc1ccc(-c2cn[nH]c2-c2cc(OC)c3c(c2)OCCO3)cc1 | 0.0298 µM | 0.419 µM | 0.0591 µM | 0.585 µM | 0.673 µM | 20.4 µM | 20.9 µM | 58.7 µM | 0.0243 µM | 0.164 µM | 0.683 µM | > 100 µM | 0.128 µM | 39 µM | 0.0685 µM | 16.1 µM | – | 23.4 µM | – | 2.07 µM
O=C1NC2(CN3CCC2CC3)C(=O)N1CN(Cc1ccccc1)c1ccccc1 (configuration not stated) | – | > 100 µM | – | > 100 µM | – | > 100 µM | – | – | – | > 100 µM | – | > 100 µM | – | > 100 µM | – | > 100 µM | > 100 µM | > 100 µM | – | –
CC(=O)Nc1ccc(S(=O)(=O)NNC(=O)c2cccnc2Nc2ccc(Cl)cc2)cc1 | 18.4 µM | 76.1 µM | 10.3 µM | 57 µM | 8.38 µM | – | > 100 µM | > 100 µM | 6.44 µM | > 100 µM | – | – | 29.2 µM | > 100 µM | – | – | > 100 µM | > 100 µM | 48.9 µM | 42.3 µM
COc1cc(Cn2c(-c3nonc3N)nc3ccccc32)ccc1C | 0.142 µM | 1.66 µM | 0.337 µM | 1.39 µM | 1.42 µM | > 100 µM | 0.526 µM | 72.7 µM | 0.243 µM | 0.735 µM | 1.59 µM | 43.5 µM | 0.399 µM | > 100 µM | 0.417 µM | 9.97 µM | – | > 100 µM | – | 1.91 µM
CCOc1c(Cl)cc(CNC(C)C(O)c2ccccc2)cc1OC (configuration not stated) | 0.244 µM | 26.4 µM | 19 µM | 35.9 µM | 16.6 µM | 32.7 µM | 16.6 µM | 33.6 µM | 20.7 µM | 43.3 µM | 24.3 µM | 96.4 µM | 30.7 µM | > 100 µM | 21.4 µM | 39 µM | – | > 100 µM | – | 33.5 µM
Nc1ccc(S(=O)(=O)NCc2nccs2)cc1 | – | 33.4 µM | – | 32.7 µM | – | – | – | – | – | 35.6 µM | – | 35.7 µM | – | > 100 µM | – | 37.9 µM | 40.7 µM | 59 µM | – | –
